The test is filed under the species Homo sapiens. Briefly: Inhibitory activity against aggregation of deoxy-HbS using CSAT assay. The test is classed as functional.

Where a SMILES comes first, the peptide text is derived from it. [ ]: non-standard residue; d: D form. Trp(5-Br) = N[C@@H](Cc1c[nH]c2ccc(Br)cc12)C(=O)O

As to `N[C@@H](Cc1c[nH]c2ccc(Br)cc12)C(=O)N[C@@H](Cc1c[nH]c2ccc(Br)cc12)C(=O)O` (H-[Trp(5-Br)]-[Trp(5-Br)]-OH), the Slope was 726 g dl-1M-1.
With `N[C@@H](Cc1c[nH]c2ccccc12)C(=O)N[C@@H](Cc1c[nH]c2ccc(Br)cc12)C(=O)O` (H-Trp-[Trp(5-Br)]-OH) the figure was 240 g dl-1M-1; with `N[C@@H](Cc1c[nH]c2ccccc12)C(=O)O`, 124 g dl-1M-1.
On to `N[C@@H](Cc1c[nH]c2ccccc12)C(=O)N[C@@H](Cc1c[nH]c2ccccc12)C(=O)O` (H-Trp-Trp-OH), for which the Slope was 235 g dl-1M-1.
As to `N[C@@H](Cc1c[nH]c2ccc(Br)cc12)C(=O)O`, the Slope was 356 g dl-1M-1.
Turning to `N[C@@H](Cc1c[nH]c2ccc(Br)cc12)C(=O)N[C@@H](Cc1c[nH]c2ccccc12)C(=O)O` (H-[Trp(5-Br)]-Trp-OH), the Slope was 334 g dl-1M-1.

(Values after ChEMBL document CHEMBL1125024, “Hemoglobin S antigelation agents based on 5-bromotryptophan with potential for sickle cell anemia” (J Med Chem, 1990).)
